In US6548062B2, “Method of treating cancer with anti-neurotrophin agents” (Cephalon, Inc., priority 2000, dated 2003):

Tests used:
[1] = system: TSU-Pr1 human prostate tumor cells; test: TSU-Pr1 prostate cancer xenograft growth in nude mice; type: in vivo; settings: Experiment #1
Description: (§1) TSU-Pr1 human prostate tumor cells were injected subcutaneously into the flank of female athymic nude mice (nu/nu; 5×10^6 cells/mice). Upon xenografts reaching 100-500 mm^3, the mice were randomized and divided into four experimental groups. One group was administered a cocktail of neurotrophin antibodies (anti-NGF, BDNF, NT-3, and NT4/5). Each dose of antibody cocktail (100 μl) contained 100 μg of each neurotrophin antibody. The second experimental group was administered normal rabbit IgG (400 μg/100 μl; PeproTech 500-P00) as a control. All antibodies were administered intratumorally (50 μl) at five injection sites and peritumorally (50 μl) at five injection sites. […] Tumor length and width were measured every two to three days (Days 1, 3, 5, 8, 10, 12, and 15).
The fourth experimental group received vehicle only (100 μl) according to the dosing schedule of the third experimental group. Tumor length and width were measured every two to three days (Days 1, 3, 5, 8, 10, 12, and 15).
Tumor volumes were calculated as described above. The mean tumor volumes and standard errors were calculated as described above. […] Probability values were calculated as described above. […]
Tumor volumes were calculated as described above. The mean tumor volumes and standard errors were also calculated as described above. […] Probability values were calculated as described above.

[2] = system: AsPC-1 human pancreatic tumor cells; test: AsPC-1 pancreatic cancer xenograft growth in nude mice; type: in vivo
Description: as §1, with “AsPC-1” for “TSU-Pr1”, “pancreatic” for “prostate”, “15). […]” for “15).”
Tumor volumes were calculated as described above. The mean tumor volumes and standard errors were also calculated as described above. […] Probability values were calculated as described above. […]
Tumors were measured every 2-4 days using a vernier caliper. Tumor volumes were calculated as described above. The mean tumor volumes and standard errors were also calculated as described above. […] Statistical analyses were calculated as described above with p≦0.05 deemed significant. […]

[3] = system: AsPC-1 human pancreatic tumor cells; settings: previously published data; cited from earlier work
[4] = system: CFPAC human pancreatic carcinoma cells; settings: previously published data; cited from earlier work
[5] = system: PC-3 human prostate tumor cells; test: PC-3 prostate cancer xenograft growth in nude mice; type: in vivo, human tumor cells in athymic nude mice; settings: 10 mg/kg s.c. BID
Description: PC-3 human prostate tumor cells (5×10^6 cells/mice) were injected subcutaneously into the flank of eight to ten week old, female athymic nude mice (nu/nu; Charles River, Raleigh, N.C.). Mice weighed between 22-25 grams on the day of tumor implantation. Upon xenografts reaching 100-500 mm^3, the mice were randomized and divided into experimental groups. Some experimental groups were administered a cocktail of neurotrophin antibodies (4×25 μg each, or 4×100 μg each of anti-NGF, BDNF, NT-3, and NT4/5) or normal rabbit IgG (100 μg or 400 μg; PeproTech 500-P00) in sterile 1×PBS (total volume of 100 μl). All antibodies were administered intratumorally (50 μl) at five injection sites and peritumorally, subcutaneously (50 μl) at five injection sites. […] Tumor length and width were measured every two to three days. […] Tumor length and width were measured every two to three days (days 1, 3, 5, 8, 10, 12, 15, 17, 19 and 22).
Tumor volumes were calculated as (length×width (length+width)/2))×0.526 (Isaacs, Canc. […] The mean tumor volumes and standard errors were calculated (SigmaStat, Jandel Scientific, San Rafel, Calif.). […] Relative tumor volumes were calculated as (mean vt mean vo), where vt refers to tumor volume on a given day and vo is the volume of the same tumor at initiation of dosing (day 1). […] Probability values were calculated by the Mann-Whitney Rank Sum Test (SigmaStat).

trkA = trkA (Homo sapiens, UniProt P04629); settings: ELISA (stated for CEP-751); read-out: IC50 trkA inhibition; cited from earlier work
Sequence of trkA (P04629 33-796, species assumed): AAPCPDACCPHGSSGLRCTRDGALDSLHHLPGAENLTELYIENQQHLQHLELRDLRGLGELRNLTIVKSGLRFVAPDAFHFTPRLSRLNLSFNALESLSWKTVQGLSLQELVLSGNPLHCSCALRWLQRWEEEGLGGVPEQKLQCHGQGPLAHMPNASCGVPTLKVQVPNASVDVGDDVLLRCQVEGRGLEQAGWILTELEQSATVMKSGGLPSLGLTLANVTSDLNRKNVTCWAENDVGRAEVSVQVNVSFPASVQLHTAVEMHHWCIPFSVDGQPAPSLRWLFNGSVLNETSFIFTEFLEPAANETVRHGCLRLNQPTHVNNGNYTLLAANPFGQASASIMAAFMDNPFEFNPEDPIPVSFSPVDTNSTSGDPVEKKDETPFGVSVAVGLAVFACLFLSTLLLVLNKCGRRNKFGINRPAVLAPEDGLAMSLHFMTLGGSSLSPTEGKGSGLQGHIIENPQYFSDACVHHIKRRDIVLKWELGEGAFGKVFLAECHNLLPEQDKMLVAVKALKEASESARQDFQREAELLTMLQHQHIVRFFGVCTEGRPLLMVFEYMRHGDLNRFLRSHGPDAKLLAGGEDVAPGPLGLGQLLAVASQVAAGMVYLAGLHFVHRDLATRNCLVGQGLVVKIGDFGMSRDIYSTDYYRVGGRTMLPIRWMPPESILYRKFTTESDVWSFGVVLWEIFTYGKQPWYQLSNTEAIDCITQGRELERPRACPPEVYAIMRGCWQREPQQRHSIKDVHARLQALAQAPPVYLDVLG

Compound | Minimum T/C (absolute tumor volumes vs vehicle control) ([1]; 10 mg/kg sc BID, Days 12 and 15) | Tolerability (deaths or morbidity) ([1]; nude mice bearing TSU-Pr1 xenografts) | Minimum T/C (absolute tumor volumes vs vehicle control) ([2]; 10 mg/kg sc BID, Day 15) | Tolerability (deaths or morbidity) ([2]; nude mice bearing AsPC-1 xenografts) | Growth of AsPC-1 tumors [3] | CFPAC tumor growth [4] | Growth of PC-3 tumors relative to vehicle control ([5]; 22 days) | Minimum T/C (absolute tumor volumes vs vehicle control) ([5]; day 19) | IC50 (trkA) [nM]
C[C@]12O[C@H](C[C@]1(O)CO)n1c3ccccc3c3c4c(c5c6ccccc6n2c5c31)CNC4=O [CEP-701] | 0.29 | well tolerated | 0.27 | well tolerated | inhibited | insensitive | – | – | –
CO[C@]1(CO)C[C@H]2O[C@]1(C)n1c3ccccc3c3c4c(c5c6ccccc6n2c5c31)C(=O)NC4 [CEP-751] | – | – | – | – | – | – | inhibited the growth of PC-3 tumors | 0.44 | 3
